# Laboratory results from PMC5218480 (PLoS ONE, 2017).
# Test system: MV-4-11 cells
# Experiment: Gene expression microarray analysis (Affymetrix PrimeView) and GSEA
# Type: cell-based, human
# Design: RFU PODN (11730768_x_at) / Fold change /veh PODN (11730768_x_at) / RFU LINC00158 (11744669_a_at) / Fold change /veh LINC00158 (11744669_a_at) / RFU DUSP10 (11751237_a_at) / Fold change /veh DUSP10 (11751237_a_at) / RFU ID3 (11757404_x_at) / Fold change /veh ID3 (11757404_x_at) / RFU PLEKHG5 (11737974_s_at) / Fold change /veh PLEKHG5 (11737974_s_at) / RFU LRRC4B (11730491_at) / Fold change /veh LRRC4B (11730491_at) / RFU GIMAP4 (11747438_a_at) / Fold change /veh GIMAP4 (11747438_a_at) / RFU KRT8 (11758183_x_at) / Fold change /veh KRT8 (11758183_x_at) / RFU CNN1 (11734310_a_at) / Fold change /veh CNN1 (11734310_a_at) / RFU VPS37D (11726825_at) / Fold change /veh VPS37D (11726825_at) / RFU C10orf10 (11716522_x_at) / Fold change /veh C10orf10 (11716522_x_at) / RFU KIR2DL2 /// KIR2DL4 /// KIR2DL5A /// KIR2DL5B /// KIR2DS1 /// KIR2DS2 /// KIR2DS3 /// KIR2DS4 /// KIR3DL3 /// KIR3DL3 /// KIR3DS1 (11738374_at) / Fold change /veh KIR2DL2 /// KIR2DL4 /// KIR2DL5A /// KIR2DL5B /// KIR2DS1 /// KIR2DS2 /// KIR2DS3 /// KIR2DS4 /// KIR3DL3 /// KIR3DL3 /// KIR3DS1 (11738374_at) / RFU C1QL1 (11718748_at) / Fold change /veh C1QL1 (11718748_at) / RFU TMPRSS4 (11747572_a_at) / Fold change /veh TMPRSS4 (11747572_a_at) / RFU HAMP (11756126_x_at) / Fold change /veh HAMP (11756126_x_at) / RFU RNFT2 (11725882_a_at) / Fold change /veh RNFT2 (11725882_a_at) / RFU NR4A2 (11747474_a_at) / Fold change /veh NR4A2 (11747474_a_at) / RFU ABCC12 (11746883_a_at) / Fold change /veh ABCC12 (11746883_a_at) / RFU TMEM136 (11760407_x_at) / Fold change /veh TMEM136 (11760407_x_at) / RFU CLDN22 /// WWC2 (11732394_at) / Fold change /veh CLDN22 /// WWC2 (11732394_at) / RFU HLA-DPB1 (11760878_x_at) / Fold change /veh HLA-DPB1 (11760878_x_at) / RFU SPINT1 (11716480_a_at) / Fold change /veh SPINT1 (11716480_a_at) / RFU GAP43 (11754022_s_at) / Fold change /veh GAP43 (11754022_s_at) / RFU A4GNT (11735810_at) / Fold change /veh A4GNT (11735810_at) / RFU PRB3 (11715151_x_at) / Fold change /veh PRB3 (11715151_x_at) / RFU TUBB4B (11761932_at) / Fold change /veh TUBB4B (11761932_at) / RFU CAPN14 (11732068_a_at) / Fold change /veh CAPN14 (11732068_a_at) / RFU TMCC2 (11721928_a_at) / Fold change /veh TMCC2 (11721928_a_at) / RFU IRGQ (11745062_a_at) / Fold change /veh IRGQ (11745062_a_at) / RFU FAM174B (11720279_a_at) / Fold change /veh FAM174B (11720279_a_at) / RFU TMPRSS4 (11748680_a_at) / Fold change /veh TMPRSS4 (11748680_a_at) / RFU FAM212B (11763350_a_at) / Fold change /veh FAM212B (11763350_a_at) / RFU PLEKHG5 (11743358_a_at) / Fold change /veh PLEKHG5 (11743358_a_at) / RFU ZSCAN30 (11745921_a_at) / Fold change /veh ZSCAN30 (11745921_a_at) / RFU CMKLR1 (11741424_a_at) / Fold change /veh CMKLR1 (11741424_a_at) / RFU LOC101060620 /// MAPK8IP1 (11723275_at) / Fold change /veh LOC101060620 /// MAPK8IP1 (11723275_at) / RFU SPTSSB (11747773_x_at) / Fold change /veh SPTSSB (11747773_x_at) / RFU PRSS12 (11739890_at) / Fold change /veh PRSS12 (11739890_at) / RFU BIN1 (11741810_x_at) / Fold change /veh BIN1 (11741810_x_at) / RFU WNT11 (11732464_a_at) / Fold change /veh WNT11 (11732464_a_at) / RFU C10orf10 (11716521_a_at) / Fold change /veh C10orf10 (11716521_a_at) / RFU C5orf56 (11738089_at) / Fold change /veh C5orf56 (11738089_at) / RFU CYB561 (11721691_x_at) / Fold change /veh CYB561 (11721691_x_at) / RFU ANKRD19P (11752326_a_at) / Fold change /veh ANKRD19P (11752326_a_at) / RFU OR2T12 /// OR2T33 /// OR2T8 (11738714_s_at) / Fold change /veh OR2T12 /// OR2T33 /// OR2T8 (11738714_s_at) / RFU VCAN (11748164_a_at) / Fold change /veh VCAN (11748164_a_at) / RFU JSRP1 (11732532_at) / Fold change /veh JSRP1 (11732532_at) / RFU KRTAP10-11 (11738290_x_at) / Fold change /veh KRTAP10-11 (11738290_x_at) / RFU MYO3A (11730013_a_at) / Fold change /veh MYO3A (11730013_a_at) / RFU EBF3 (11725865_a_at) / Fold change /veh EBF3 (11725865_a_at) / RFU CAMK2N1 (11719241_x_at) / Fold change /veh CAMK2N1 (11719241_x_at) / RFU C5orf56 (11738088_a_at) / Fold change /veh C5orf56 (11738088_a_at) / RFU OLFML3 (11715873_a_at) / Fold change /veh OLFML3 (11715873_a_at) / RFU LOC100653217 /// NTM (11731650_a_at) / Fold change /veh LOC100653217 /// NTM (11731650_a_at) / RFU MAPK11 (11762145_a_at) / Fold change /veh MAPK11 (11762145_a_at) / RFU FIZ1 (11724087_x_at) / Fold change /veh FIZ1 (11724087_x_at) / RFU OASL (11726364_x_at) / Fold change /veh OASL (11726364_x_at) / RFU SOX15 (11748057_x_at) / Fold change /veh SOX15 (11748057_x_at) / RFU CD79A (11719716_a_at) / Fold change /veh CD79A (11719716_a_at) / RFU HIST1H1D (11736915_at) / Fold change /veh HIST1H1D (11736915_at) / RFU CASKIN2 (11723855_a_at) / Fold change /veh CASKIN2 (11723855_a_at) / RFU LOC730098 (11760151_x_at) / Fold change /veh LOC730098 (11760151_x_at) / RFU OR4N2 (11742367_at) / Fold change /veh OR4N2 (11742367_at) / RFU PRRT2 (11749266_a_at) / Fold change /veh PRRT2 (11749266_a_at) / RFU SNX32 (11753110_a_at) / Fold change /veh SNX32 (11753110_a_at) / RFU CDHR5 (11726645_a_at) / Fold change /veh CDHR5 (11726645_a_at) / RFU RCAN1 (11760418_a_at) / Fold change /veh RCAN1 (11760418_a_at) / RFU FAM167A (11723789_a_at) / Fold change /veh FAM167A (11723789_a_at) / RFU FAM26E (11764081_at) / Fold change /veh FAM26E (11764081_at) / RFU ISYNA1 (11749810_s_at) / Fold change /veh ISYNA1 (11749810_s_at) / RFU ACY1 (11761880_at) / Fold change /veh ACY1 (11761880_at) / RFU 11764098_at / Fold change /veh 11764098_at / RFU SAMD14 (11745864_x_at) / Fold change /veh SAMD14 (11745864_x_at) / RFU NPB (11741838_a_at) / Fold change /veh NPB (11741838_a_at) / RFU TMPRSS6 (11731388_a_at) / Fold change /veh TMPRSS6 (11731388_a_at) / RFU KRTAP10-2 (11738614_at) / Fold change /veh KRTAP10-2 (11738614_at) / RFU ARHGAP8 /// PRR5-ARHGAP8 (11727945_x_at) / Fold change /veh ARHGAP8 /// PRR5-ARHGAP8 (11727945_x_at) / RFU KRTAP5-7 /// NADSYN1 (11734609_at) / Fold change /veh KRTAP5-7 /// NADSYN1 (11734609_at) / RFU RASL12 (11751679_a_at) / Fold change /veh RASL12 (11751679_a_at) / RFU CDKN2B (11736163_a_at) / Fold change /veh CDKN2B (11736163_a_at) / RFU PRF1 (11729649_at) / Fold change /veh PRF1 (11729649_at) / RFU, ZNF638 /// ZNF638-IT1 / Fold change vs veh, ZNF638 /// ZNF638-IT1 / RFU, PANK3 / Fold change vs veh, PANK3 / RFU, SH3YL1 / Fold change vs veh, SH3YL1 / RFU, ZEB2 / Fold change vs veh, ZEB2 / RFU, NRIP1 / Fold change vs veh, NRIP1 / RFU, PTTG1IP / Fold change vs veh, PTTG1IP / RFU, CAPN2 / Fold change vs veh, CAPN2 / RFU, MED14 / Fold change vs veh, MED14 / RFU, SNORA58 / Fold change vs veh, SNORA58 / RFU, C1orf63 / Fold change vs veh, C1orf63 / RFU, LRRFIP1 / Fold change vs veh, LRRFIP1 / RFU, NDUFAF7 / Fold change vs veh, NDUFAF7 / RFU, SLC12A2 / Fold change vs veh, SLC12A2 / RFU, IBTK / Fold change vs veh, IBTK / RFU, ESF1 / Fold change vs veh, ESF1 / Fold change vs veh, TMEM50B / RFU, TAOK1 / Fold change vs veh, TAOK1 / RFU, ACBD3 / Fold change vs veh, ACBD3 / RFU, TMA16 / Fold change vs veh, TMA16 / RFU, RWDD3 / Fold change vs veh, RWDD3 / RFU, BCAT1 / Fold change vs veh, BCAT1 / RFU, EDEM3 / Fold change vs veh, EDEM3 / RFU, TMEM33 / Fold change vs veh, TMEM33 / RFU, WDR75 / Fold change vs veh, WDR75 / RFU, AHCTF1 / Fold change vs veh, AHCTF1 / RFU, TFRC / Fold change vs veh, TFRC / RFU, ZDHHC17 / Fold change vs veh, ZDHHC17 / RFU, NOM1 / Fold change vs veh, NOM1 / RFU, ARL8B / Fold change vs veh, ARL8B / RFU, ZBTB11 / Fold change vs veh, ZBTB11 / RFU, TAMM41 / Fold change vs veh, TAMM41 / RFU, KIAA1704 /// LOC100996395 / Fold change vs veh, KIAA1704 /// LOC100996395 / RFU, ING1 / Fold change vs veh, ING1 / RFU, TRMT61B / Fold change vs veh, TRMT61B / RFU, FUBP3 / Fold change vs veh, FUBP3 / RFU, TP53 / Fold change vs veh, TP53 / RFU, TNKS2 / Fold change vs veh, TNKS2 / RFU, ZFP14 / Fold change vs veh, ZFP14 / RFU, ACTR2 / Fold change vs veh, ACTR2 / RFU, PPP3R1 / Fold change vs veh, PPP3R1 / RFU, PIK3R1 / Fold change vs veh, PIK3R1 / RFU, HNRNPA1 / Fold change vs veh, HNRNPA1 / RFU, RNF170 / Fold change vs veh, RNF170 / RFU, ZNF28 / Fold change vs veh, ZNF28 / RFU, RNGTT / Fold change vs veh, RNGTT / RFU, OGT / Fold change vs veh, OGT / RFU, BRD1 / Fold change vs veh, BRD1 / RFU, MARS / Fold change vs veh, MARS / RFU, ZNF655 / Fold change vs veh, ZNF655 / RFU, FAHD1 / Fold change vs veh, FAHD1 / RFU, BDP1 / Fold change vs veh, BDP1 / RFU, LRRCC1 / Fold change vs veh, LRRCC1 / RFU, ARID1A / Fold change vs veh, ARID1A / RFU, ZNF146 / Fold change vs veh, ZNF146 / RFU, ZNF330 / Fold change vs veh, ZNF330 / RFU, GPN3 / Fold change vs veh, GPN3 / RFU, C9orf123 / Fold change vs veh, C9orf123 / RFU, N4BP2L2 / Fold change vs veh, N4BP2L2 / RFU, ARFIP1 / Fold change vs veh, ARFIP1 / RFU, FAM179B / Fold change vs veh, FAM179B / RFU, BCL10 / Fold change vs veh, BCL10 / RFU, UHRF1BP1L / Fold change vs veh, UHRF1BP1L / RFU, BET1 / Fold change vs veh, BET1 / RFU, CNOT2 / Fold change vs veh, CNOT2 / RFU, ZNF268 / Fold change vs veh, ZNF268 / Fold change vs veh, ZNF507 / RFU, DGCR2 / Fold change vs veh, DGCR2 / RFU, WDSUB1 / Fold change vs veh, WDSUB1 / Fold change vs veh, HSP90B1 /// MIR3652 / RFU, ADSS / Fold change vs veh, ADSS / RFU, GK / Fold change vs veh, GK / RFU, ZNF148 / Fold change vs veh, ZNF148 / RFU, TAF9 / Fold change vs veh, TAF9 / RFU, SLC1A5 / Fold change vs veh, SLC1A5 / RFU, SLMO2 / Fold change vs veh, SLMO2 / RFU, ABCC4 / Fold change vs veh, ABCC4 / RFU, LOC101060439 /// RAP1B / Fold change vs veh, LOC101060439 /// RAP1B / RFU, RFX7 / Fold change vs veh, RFX7 / RFU, GTPBP10 / Fold change vs veh, GTPBP10 / RFU, CNEP1R1 / Fold change vs veh, CNEP1R1 / RFU, BIVM-ERCC5 /// ERCC5 / Fold change vs veh, BIVM-ERCC5 /// ERCC5 / RFU, ILF3 / Fold change vs veh, ILF3 / RFU 11762660_at / Fold change /veh 11762660_at / RFU VCAN (11757783_s_at) / Fold change /veh VCAN (11757783_s_at) / RFU DDX43 (11728927_at) / Fold change /veh DDX43 (11728927_at) / RFU KRT8 (11758188_x_at) / Fold change /veh KRT8 (11758188_x_at) / RFU NKD1 (11759106_at) / Fold change /veh NKD1 (11759106_at) / RFU SRD5A1 (11742802_a_at) / Fold change /veh SRD5A1 (11742802_a_at) / RFU TPSAB1 /// TPSB2 (11721975_s_at) / Fold change /veh TPSAB1 /// TPSB2 (11721975_s_at) / RFU GSTM3 (11746129_a_at) / Fold change /veh GSTM3 (11746129_a_at) / RFU IL23R (11737362_x_at) / Fold change /veh IL23R (11737362_x_at) / RFU TMEM51 (11727254_a_at) / Fold change /veh TMEM51 (11727254_a_at) / RFU PIWIL2 (11732686_x_at) / Fold change /veh PIWIL2 (11732686_x_at) / RFU ORM1 (11744905_x_at) / Fold change /veh ORM1 (11744905_x_at) / RFU CCDC152 (11743942_at) / Fold change /veh CCDC152 (11743942_at) / RFU ECM1 (11717891_a_at) / Fold change /veh ECM1 (11717891_a_at) / RFU IL23R (11748794_a_at) / Fold change /veh IL23R (11748794_a_at) / RFU TNFAIP8L3 (11732012_x_at) / Fold change /veh TNFAIP8L3 (11732012_x_at) / RFU MBOAT4 (11741988_at) / Fold change /veh MBOAT4 (11741988_at) / RFU 11764193_at / Fold change /veh 11764193_at / RFU TMEM53 (11763286_at) / Fold change /veh TMEM53 (11763286_at) / RFU MAGEB2 (11727129_at) / Fold change /veh MAGEB2 (11727129_at) / RFU TMEM200A (11744735_a_at) / Fold change /veh TMEM200A (11744735_a_at) / RFU CCDC152 (11751479_a_at) / Fold change /veh CCDC152 (11751479_a_at) / RFU FAM211A (11726209_a_at) / Fold change /veh FAM211A (11726209_a_at) / RFU RGS16 (11746705_a_at) / Fold change /veh RGS16 (11746705_a_at) / RFU VCAN (11755009_s_at) / Fold change /veh VCAN (11755009_s_at) / RFU RHOB (11743442_s_at) / Fold change /veh RHOB (11743442_s_at) / RFU RGS16 (11720943_a_at) / Fold change /veh RGS16 (11720943_a_at) / RFU RGS16 (11720944_at) / Fold change /veh RGS16 (11720944_at) / RFU, VPS4B / Fold change vs veh, VPS4B / RFU, CREB1 / Fold change vs veh, CREB1 / RFU, DNAJC13 / Fold change vs veh, DNAJC13 / RFU, GNAQ / Fold change vs veh, GNAQ / RFU, CDK5R1 / Fold change vs veh, CDK5R1 / RFU, ZRANB3 / Fold change vs veh, ZRANB3 / RFU, CUL4A / Fold change vs veh, CUL4A / RFU, CCNY / Fold change vs veh, CCNY / RFU, UFL1 / Fold change vs veh, UFL1 / RFU, COG3 / Fold change vs veh, COG3 / RFU, DIAPH2 / Fold change vs veh, DIAPH2 / RFU, SKA2 / Fold change vs veh, SKA2 / RFU, AFF3 / Fold change vs veh, AFF3 / RFU, LMF1 / Fold change vs veh, LMF1 / RFU, IPO11 / Fold change vs veh, IPO11 / RFU, DFFB / Fold change vs veh, DFFB / RFU, FOXP1 / Fold change vs veh, FOXP1 / RFU, CARD8 / Fold change vs veh, CARD8 / RFU, STRN3 / Fold change vs veh, STRN3 / RFU, ADK / Fold change vs veh, ADK / RFU, RASSF2 / Fold change vs veh, RASSF2 / RFU, WIPF1 / Fold change vs veh, WIPF1 / RFU, LARP1B / Fold change vs veh, LARP1B / RFU, RASA1 / Fold change vs veh, RASA1 / RFU, RB1 / Fold change vs veh, RB1 / RFU, PPFIA1 / Fold change vs veh, PPFIA1 / RFU, MAT2A / Fold change vs veh, MAT2A / RFU, CCT5 / Fold change vs veh, CCT5 / RFU, WDR92 / Fold change vs veh, WDR92 / RFU, CUX1 / Fold change vs veh, CUX1 / RFU, TTC7A / Fold change vs veh, TTC7A / RFU, TMEM135 / Fold change vs veh, TMEM135 / RFU, DEPTOR / Fold change vs veh, DEPTOR / RFU, CPM / Fold change vs veh, CPM / RFU, DNAJB6 / Fold change vs veh, DNAJB6 / RFU, CACNA2D3 / Fold change vs veh, CACNA2D3 / RFU, DTX4 / Fold change vs veh, DTX4 / RFU, TFCP2 / Fold change vs veh, TFCP2 / RFU, GMCL1 /// GMCL1P1 / Fold change vs veh, GMCL1 /// GMCL1P1 / RFU, AEBP2 / Fold change vs veh, AEBP2 / RFU, SNHG1 /// SNORD22 /// SNORD25 /// SNORD26 /// SNORD27 /// SNORD28 /// SNORD29 /// SNORD31 / Fold change vs veh, SNHG1 /// SNORD22 /// SNORD25 /// SNORD26 /// SNORD27 /// SNORD28 /// SNORD29 /// SNORD31 / Fold change (Aza/veh), C12orf56 (ProbeSet 11735607_a_at) / Fold change (ACY-1035/veh), C12orf56 (ProbeSet 11735607_a_at) / Fold change (Aza/veh), FGFR1OP (ProbeSet 11751329_s_at) / Fold change (ACY-1035/veh), FGFR1OP (ProbeSet 11751329_s_at) / Fold change (Aza/veh), VPS36 (ProbeSet 11739960_a_at) / Fold change (ACY-1035/veh), VPS36 (ProbeSet 11739960_a_at) / RFU SYPL1 (11715823_x_at) / Fold change /veh SYPL1 (11715823_x_at) / RFU IGFBP7 (11715501_s_at) / Fold change /veh IGFBP7 (11715501_s_at) / RFU REEP3 (11722064_at) / Fold change /veh REEP3 (11722064_at) / RFU IGLL1 (11728026_x_at) / Fold change /veh IGLL1 (11728026_x_at): dose or concentration left out as unconfirmed
# Conditions: MV-4-11 cells, 48 hours
smiles,measurement,value
Nc1ncn([C@@H]2O[C@H](CO)[C@@H](O)[C@H]2O)c(=O)n1 [azacitidine],Fold change /veh OLFML3 (11715873_a_at),0.98
